Measured values reported in US9518060B2, “Substituted pyrrolo[3,4-c]pyrazoles as PKC kinase inhibitors” (PFIZER INC., priority 2007, dated 2016).
pKi: −log10 of the molar value.

Target: Protein Kinase C beta 2 (PKCβII) (Homo sapiens (Human), UniProt P05771)
Test: PKCβII coupled spectrophotometric kinase assay (PK/LDH, NADH absorbance at 340 nm)
Assay type: biochemical
Conditions: apparent Ki, ATP competitive inhibition model (Morrison equation); 0.1 mM ATP, 5 nM PKC, 30° C.; read-out: Ki app
Method in brief: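 PK/LDH-coupled ADP detection (NADH loss at 340 nm), 20 min at 30° C, pH 7.4; 5 nM PKCβII, 0.15 mM pseudosubstrate peptide, 0.1 mM ATP, with CaCl2, PS and PMA activators, 7.5% DMSO. Apparent Ki from initial velocities fitted to ATP-competitive Morrison model over 10,000–0.169 nM inhibitor.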

Sequence of Protein Kinase C beta 2 (PKCβII) (P05771 other isoform, or with tags, fused parts or gaps): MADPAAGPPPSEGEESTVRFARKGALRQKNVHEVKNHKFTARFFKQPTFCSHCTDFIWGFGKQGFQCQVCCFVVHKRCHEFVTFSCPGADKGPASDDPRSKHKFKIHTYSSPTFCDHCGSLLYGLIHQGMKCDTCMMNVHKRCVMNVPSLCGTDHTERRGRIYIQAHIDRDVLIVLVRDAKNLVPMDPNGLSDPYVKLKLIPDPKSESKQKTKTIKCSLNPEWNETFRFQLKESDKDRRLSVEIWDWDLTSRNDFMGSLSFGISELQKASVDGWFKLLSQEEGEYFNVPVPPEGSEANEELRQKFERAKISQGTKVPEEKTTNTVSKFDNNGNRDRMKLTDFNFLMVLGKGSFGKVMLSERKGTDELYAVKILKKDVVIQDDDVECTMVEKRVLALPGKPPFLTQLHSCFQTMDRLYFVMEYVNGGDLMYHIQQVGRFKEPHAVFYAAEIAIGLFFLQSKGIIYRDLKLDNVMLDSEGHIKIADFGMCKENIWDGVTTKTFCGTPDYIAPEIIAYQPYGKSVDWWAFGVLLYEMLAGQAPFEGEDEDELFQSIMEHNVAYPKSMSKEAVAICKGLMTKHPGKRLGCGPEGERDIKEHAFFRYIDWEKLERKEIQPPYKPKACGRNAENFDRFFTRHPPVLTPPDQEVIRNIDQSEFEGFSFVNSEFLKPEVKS

Compound: CCOc1ncc(F)c(Nc2n[nH]c3c2CN(C(=O)N2C[C@@H]4CCCN4C[C@@H]2C(C)C)C3(C)C)n1 [Example K20, N-(2-ethoxy-5-fluoropyrimidin-4-yl)-5-{[(3S,8aS)-3-isopropylhexahydropyrrolo[1,2-a]pyrazin-2(1H)-yl]carbonyl}-6,6-dimethyl-1,4,5,6-tetrahydropyrrolo[3,4-c]pyrazol-3-amine]
- pKi: 7.59

Compound: CCOc1ncc(F)c(Nc2n[nH]c3c2CN(C(=O)N2C[C@@H](C)N(C4CCOCC4)C[C@@H]2C)C3(C)C)n1 [Example K21, 5-{[(2S,5R)-2,5-dimethyl-4-(tetrahydro-2H-pyran-4-yl)piperazin-1-yl]carbonyl}-N-(2-ethoxy-5-fluoropyrimidin-4-yl)-6,6-dimethyl-1,4,5,6-tetrahydropyrrolo[3,4-c]pyrazol-3-amine]
- pKi: > 8.00

Compound: CCOc1ncc(F)c(Nc2n[nH]c3c2CN(C(=O)N2C[C@@H](C)N(CC4(O)CCOCC4)C[C@@H]2C)C3(C)C)n1 [Example K22, 4-[((2R,5S)-4-{[3-[(2-ethoxy-5-fluoropyrimidin-4-yl)amino]-6,6-dimethyl-4,6-dihydropyrrolo[3,4-c]pyrazol-5(1H)-yl]carbonyl}-2,5-dimethylpiperazin-1-yl)methyl]tetrahydro-2H-pyran-4-ol]
- pKi: 7.82

Compound: CCOc1ncc(F)c(Nc2n[nH]c3c2CN(C(=O)N2CC(CCO)N(C)C[C@@H]2C)C3(C)C)n1 (stereo partly drawn) [Example K23, 2-((5S)-4-{[3-[(2-ethoxy-5-fluoropyrimidin-4-yl)amino]-6,6-dimethyl-4,6-dihydropyrrolo[3,4-c]pyrazol-5(1H)-yl]carbonyl}-1,5-dimethylpiperazin-2-yl)ethanol]
- pKi: > 8.00

Compound: CCOc1ncc(F)c(Nc2n[nH]c3c2CN(C(=O)C2(F)CCN(C)CC2)C3(C)C)n1 [Example L1, N-(2-ethoxy-5-fluoropyrimidin-4-yl)-5-[(4-fluoro-1-methylpiperidin-4-yl)carbonyl]-6,6-dimethyl-1,4,5,6-tetrahydropyrrolo[3,4-c]pyrazol-3-amine]
- pKi: 7.77

Compound: COCCOc1ncc(F)c(Nc2n[nH]c3c2CN(C(=O)C2(F)CCN(C)CC2)C3(C)C)n1 [Example L2, N-[5-fluoro-2-(2-methoxyethoxy)pyrimidin-4-yl]-5-[(4-fluoro-1-methylpiperidin-4-yl)carbonyl]-6,6-dimethyl-1,4,5,6-tetrahydropyrrolo[3,4-c]pyrazol-3-amine]
- pKi: 6.77

Compound: COCCCOc1ncc(F)c(Nc2n[nH]c3c2CN(C(=O)C2(F)CCN(C)CC2)C3(C)C)n1 [Example L3, N-[5-fluoro-2-(3-methoxypropoxy)pyrimidin-4-yl]-5-[(4-fluoro-1-methylpiperidin-4-yl)carbonyl]-6,6-dimethyl-1,4,5,6-tetrahydropyrrolo[3,4-c]pyrazol-3-amine]
- pKi: 7.23

Compound: CN1CCC(F)(C(=O)N2Cc3c(Nc4nc(OCC(F)(F)F)ncc4F)n[nH]c3C2(C)C)CC1 [Example L4, 5-[(4-fluoro-1-methylpiperidin-4-yl)carbonyl]-N-[5-fluoro-2-(2,2,2-trifluoroethoxy)pyrimidin-4-yl]-6,6-dimethyl-1,4,5,6-tetrahydropyrrolo[3,4-c]pyrazol-3-amine]
- pKi: 8.77

Compound: CCOc1ncc(F)c(Nc2n[nH]c3c2CN(C(=O)C2CCN(CCC(F)(F)F)CC2)C3(C)C)n1 [Example L5, N-(2-ethoxy-5-fluoropyrimidin-4-yl)-6,6-dimethyl-5-{[1-(3,3,3-trifluoropropyl)piperidin-4-yl]carbonyl}-1,4,5,6-tetrahydropyrrolo[3,4-c]pyrazol-3-amine]
- pKi: 6.89

Compound: CCOc1ncc(F)c(Nc2n[nH]c3c2CN(C(=O)C2CCN(C4CCOCC4)CC2)C3(C)C)n1 [Example L6, N-(2-ethoxy-5-fluoropyrimidin-4-yl)-6,6-dimethyl-5-{[1-(tetrahydro-2H-pyran-4-yl)piperidin-4-yl]carbonyl}-1,4,5,6-tetrahydropyrrolo[3,4-c]pyrazol-3-amine]
- pKi: 6.74

Compound: CCOc1ccnc(Nc2n[nH]c3c2CN(C(=O)N2C[C@@H](C)N(C)C[C@@H]2C)C3(C)C)n1 [Example M1, N-(4-ethoxypyrimidin-2-yl)-6,6-dimethyl-5-{[(2S,5R)-2,4,5-trimethylpiperazin-1-yl]carbonyl}-1,4,5,6-tetrahydropyrrolo[3,4-c]pyrazol-3-amine]
- pKi: 8.37

Compound: CCOc1ccnc(Nc2n[nH]c3c2CN(C(=O)N2C[C@@H](C)N(CCCOC)C[C@@H]2C)C3(C)C)n1 [Example M2, N-(4-ethoxypyrimidin-2-yl)-5-{[(2S,5R)-4-(3-methoxypropyl)-2,5-dimethylpiperazin-1-yl]carbonyl}-6,6-dimethyl-1,4,5,6-tetrahydropyrrolo[3,4-c]pyrazol-3-amine]
- pKi: 7.79

Compound: COCc1ncc(F)c(Nc2n[nH]c3c2CN(C(=O)N2C[C@@H](C)N(CC4CCOCC4)C[C@@H]2C)C3(C)C)n1 [Example N1, 5-{[(2S,5R)-2,5-dimethyl-4-(tetrahydro-2H-pyran-4-ylmethyl)piperazin-1-yl]carbonyl}-N-[5-fluoro-2-(methoxymethyl)pyrimidin-4-yl]-6,6-dimethyl-1,4,5,6-tetrahydropyrrolo[3,4-c]pyrazol-3-amine]
- pKi: > 8.00
